Values joined by “and” are separate entries in the source; they are usually repeats but may differ in a detail not shown here. Equal entries are not always repeated. Where only a bound is given, the exact number is not on record here.

FTO, sequence (Q9C0B1 whole entry): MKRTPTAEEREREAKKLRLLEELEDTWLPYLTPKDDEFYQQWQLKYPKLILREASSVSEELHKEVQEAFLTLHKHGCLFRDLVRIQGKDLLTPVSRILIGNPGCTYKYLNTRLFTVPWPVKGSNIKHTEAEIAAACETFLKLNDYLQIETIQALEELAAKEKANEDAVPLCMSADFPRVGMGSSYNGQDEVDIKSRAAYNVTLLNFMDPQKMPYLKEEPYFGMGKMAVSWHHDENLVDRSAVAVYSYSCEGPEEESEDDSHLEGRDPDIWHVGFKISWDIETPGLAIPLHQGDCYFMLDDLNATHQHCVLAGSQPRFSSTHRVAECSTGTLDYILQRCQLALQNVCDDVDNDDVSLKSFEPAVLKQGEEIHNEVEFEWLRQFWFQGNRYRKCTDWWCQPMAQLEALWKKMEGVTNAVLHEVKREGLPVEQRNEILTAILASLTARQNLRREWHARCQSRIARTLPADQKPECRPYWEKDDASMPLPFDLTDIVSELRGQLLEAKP
ALKBH5, sequence (Q6P6C2 whole entry): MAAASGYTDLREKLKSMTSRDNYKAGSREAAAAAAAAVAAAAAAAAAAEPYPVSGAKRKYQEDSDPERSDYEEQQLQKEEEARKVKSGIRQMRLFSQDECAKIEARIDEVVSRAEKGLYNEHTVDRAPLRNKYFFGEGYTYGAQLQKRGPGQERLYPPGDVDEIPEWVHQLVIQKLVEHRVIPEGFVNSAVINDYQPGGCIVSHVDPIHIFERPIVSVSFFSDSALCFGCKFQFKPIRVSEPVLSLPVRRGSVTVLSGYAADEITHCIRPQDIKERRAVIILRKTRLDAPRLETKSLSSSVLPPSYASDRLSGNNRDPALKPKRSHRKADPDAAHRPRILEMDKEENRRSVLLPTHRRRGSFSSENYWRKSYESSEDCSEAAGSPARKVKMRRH

In the first series the target is ALKBH5 (Homo sapiens (Human), UniProt Q6P6C2). Briefly: Fluorescence enzymatic inhibition assay (m6A7-Broccoli RNA / DFHBI-1T) against ALKBH5. The class given is biochemical. Conditions: ALK series, permeability data and IC50 tables; read-out: Enzymatic IC50 ALKBH5. Here is the method:
(§1) Inhibitors were added in concentrations ranging from 0.008-40 μM; all inhibitors were dissolved in DMSO and added to a final concentration of 0.2% DMSO. […] After incubation at room temperature for 2 hours, the plates were left at 4° C. overnight (16 hours) to allow DFHBI-1T to bind to A7-Broccoli RNA. […] Sigmoidal dose-response curves were fitted in GraphPad Prism 6. All assays were performed in triplicate, with additional repetitions added as necessary.
`COC(=O)C1COC(c2ccccc2O)N1` (stereo not drawn) [ALK-16]: the IC50 (as a rule, the point on the concentration scale where inhibition reaches its midpoint) turned out to be 8.2 ± 2.3 µM.

With `COC(=O)C1COC(c2ccc(OC)cc2O)N1` (stereo not drawn) [ALK-17], the IC50 was determined as 18.2 µM.

`COC(=O)C1COC(c2ccc(-c3ccccc3)o2)N1` (stereo not drawn) [ALK-18]: the IC50 amounted to 5.4 ± 1.4 µM.

With `COC(=O)C1COC(c2cc(C(C)(C)C)ccc2O)N1` (stereo not drawn) [ALK-19], the IC50 was found to be 24 ± 4.2 µM.

The series is the same for the next values; noted with them: Table 700 compounds; read-out: Enzymatic IC50 ALKBH5.
On to `CCOC(=O)C1CC1C1NCCS1` (stereo not drawn) [ALK-01], for which the IC50 is 17.5 µM.

As for `CC(C)(C)OC(=O)N1CCC(F)(C2NCCS2)C1` (stereo not drawn) [ALK-02], the IC50 was 16.6 µM.

For `O=C(O)N1CCC(F)(C2NCCS2)C1` (stereo not drawn) [ALK-03], the IC50 was over 40 µM.

Consider `CC1(C)SCC(C)(C(=O)O)N1C(N)=O` (stereo not drawn) [ALK-05], for which the IC50 came out at 19.8 ± 1.8 µM.

Consider `O=C(O)[C@H]1NCCS1` [ALK-06], for which the IC50 is 8.8 µM and 7.95 µM.

Regarding `CC1(C)S[C@@H]2[C@H](N)C(=O)N2[C@H]1C(=O)O` [ALK-07], the IC50 was found to be 10 ± 2.8 µM.

Turning to `C[C@]1(Cn2ccnn2)C(C(=O)O)N2C(=O)C[C@H]2S1(=O)=O` (stereo partly drawn) [ALK-08], the IC50 came out at 9.9 ± 1.3 µM.

On to `CC1(C)[C@H](C(=O)O)N2C(=O)C[C@H]2S1(=O)=O` [ALK-09], for which the IC50 is 3.8 µM and 5.7 µM.

Turning to `O=C1N[C@H](C(=O)O)CS1` [ALK-10], the 50% inhibitory concentration (IC50) worked out at 1.7 ± 1.1 µM.

`COC(=O)C1COC(c2ccc(O)cc2)N1` (stereo not drawn) [ALK-13]: the half-inhibitory concentration (IC50) came to 6.7 ± 1.8 µM.

For `COC(=O)C1COC(c2ccccc2O)N1` (stereo not drawn) [ALK-16], the IC50 came to 8.2 ± 2.3 µM.

For `COC(=O)C1COC(c2ccc(-c3ccccc3)o2)N1` (stereo not drawn) [ALK-18], the half-inhibitory concentration (IC50) was 5.4 ± 0.7 µM.

Regarding `COC(=O)C1COC(c2ccc(OC)c(Cl)c2)N1` (stereo not drawn) [ALK-23], the IC50 is 2.8 ± 0.5 µM.

For `COC(=O)C1COC(c2ccc(-c3ccccc3)s2)N1` (stereo not drawn) [ALK-25], the IC50 is 0.9 ± 0.2 µM.

Turning to `CCN(CC)c1ccc(C2NC(C(=O)OC)CS2)c(O)c1` (stereo not drawn) [ALK-30], the IC50 was found to be 1.4 ± 0.4 µM.

The same series, now with this note: Table 800 compounds; read-out: ALKBH5 IC50.
With `O=S(=O)(NCC1CCCOC1)c1ccc(OC(F)(F)F)cc1` (stereo not drawn) [TR-ALKBH5-04], the IC50 was 0.24 µM.

As to `CC(=O)c1ccc(S(=O)(=O)NCC2CCCOC2)cc1` (stereo not drawn) [TR-ALKBH5-05], the IC50 came out at 1.9 µM.

Take `O=S(=O)(NCC1CCCOC1)c1ccccc1` (stereo not drawn) [TR-ALKBH5-08]: the concentration for half-maximal inhibition (IC50) came to 0.5 µM.

Consider `O=S(=O)(Nc1ccc(Cl)c(C(F)(F)F)c1)c1ccc(OC(F)(F)F)cc1` [TR-ALKBH5-25], for which the IC50 was determined as 1.6 µM.

On to `O=S(=O)(Nc1cccs1)c1ccc(OC(F)(F)F)cc1` [TR-ALKBH5-27], for which the 50% inhibitory concentration (IC50) was determined as 2 µM.

As to `O=S(=O)(Nc1cc(Cl)ccc1O)c1ccc(OC(F)(F)F)cc1` [TR-ALKBH5-29], the IC50 is 0.11 µM.

Staying with this series, now noted: m6A7-Broccoli fluorescence assay, 0.250 μM ALKBH5; read-out: Enzymatic IC50 ALKBH5.
In the case of `COc1ncc(-c2ccc3cc(O)ccc3c2)cn1` [FTO-2, 6-(2-methoxypyrimidin-5-yl)naphthalen-2-ol], the IC50 was 85.5 µM.

In the case of `COc1ncc(-c2ccc3nc(N)sc3c2)cn1` [FTO-4, 6-(2-methoxypyrimidin-5-yl)benzo[d]thiazol-2-amine], the IC50 is 39.4 ± 3.1 µM.

Regarding `Cc1ccc2[nH]cc(CNCC3(N4CCCC4)COC3)c2c1` [TR-FTO-09], the half-maximal inhibitory concentration (IC50) is over 40 µM.

As for `Fc1ccc2[nH]cc(CNCC3(N4CCCC4)COC3)c2c1` [TR-FTO-11], the IC50 was found to be 6.6 µM.

Tested on in a further series: not listed separately
Briefly: elogD / log D determination. The following applies: Table 700 compounds.
Compound `CCOC(=O)C1CC1C1NCCS1` (stereo not drawn) [ALK-01] came in with an elogD of 0.58.

For `CC(C)(C)OC(=O)N1CCC(F)(C2NCCS2)C1` (stereo not drawn) [ALK-02], the elogD is on record as 1.40.

On to `O=C(O)N1CCC(F)(C2NCCS2)C1` (stereo not drawn) [ALK-03], for which the elogD is recorded as 0.62.

In turn, `CC1(C)SCC(C)(C(=O)O)N1C(N)=O` (stereo not drawn) [ALK-05] had an elogD of 0.16.

For the compound `O=C(O)[C@H]1NCCS1` [ALK-06], the elogD was found to be 0.89.

The compound `CC1(C)S[C@@H]2[C@H](N)C(=O)N2[C@H]1C(=O)O` [ALK-07] yielded an elogD of 0.95.

Consider `C[C@]1(Cn2ccnn2)C(C(=O)O)N2C(=O)C[C@H]2S1(=O)=O` (stereo partly drawn) [ALK-08], for which the elogD came to 0.36.

For `CC1(C)[C@H](C(=O)O)N2C(=O)C[C@H]2S1(=O)=O` [ALK-09], the elogD came to 0.41.

Take `O=C1N[C@H](C(=O)O)CS1` [ALK-10]: the elogD is reported as 0.54.

As for `COC(=O)C1COC(c2ccc(O)cc2)N1` (stereo not drawn) [ALK-13], the elogD is given as 2.12.

Compound `COC(=O)C1COC(c2ccccc2O)N1` (stereo not drawn) [ALK-16] returned an elogD of 1.44.

With `COC(=O)C1COC(c2ccc(-c3ccccc3)o2)N1` (stereo not drawn) [ALK-18], the elogD amounted to 0.73.

`COC(=O)C1COC(c2ccc(OC)c(Cl)c2)N1` (stereo not drawn) [ALK-23] showed an elogD of 3.01.

Regarding `COC(=O)C1COC(c2ccc(-c3ccccc3)s2)N1` (stereo not drawn) [ALK-25], the elogD is 1.17.

As to `CCN(CC)c1ccc(C2NC(C(=O)OC)CS2)c(O)c1` (stereo not drawn) [ALK-30], the elogD worked out at 0.67.

The same series, now with this note: Table 800 compounds.
`O=S(=O)(NCC1CCCOC1)c1ccc(OC(F)(F)F)cc1` (stereo not drawn) [TR-ALKBH5-04] had an elogD of 0.37.

For `CC(=O)c1ccc(S(=O)(=O)NCC2CCCOC2)cc1` (stereo not drawn) [TR-ALKBH5-05], the elogD worked out at 1.12.

`O=S(=O)(NCC1CCCOC1)c1ccccc1` (stereo not drawn) [TR-ALKBH5-08]: the elogD turned out to be 0.89.

In the case of `O=S(=O)(Nc1ccc(Cl)c(C(F)(F)F)c1)c1ccc(OC(F)(F)F)cc1` [TR-ALKBH5-25], the elogD was 1.50.

With `O=S(=O)(Nc1cccs1)c1ccc(OC(F)(F)F)cc1` [TR-ALKBH5-27], the elogD was 0.36.

The compound `O=S(=O)(Nc1cc(Cl)ccc1O)c1ccc(OC(F)(F)F)cc1` [TR-ALKBH5-29] came in with an elogD of 0.88.

The target of a further series is FTO (Homo sapiens (Human), UniProt Q9C0B1). Description: Fluorescence enzymatic inhibition assay (m6A7-Broccoli RNA / DFHBI-1T) against FTO. Format: biochemical. Conditions: Table 700 compounds; read-out: Enzymatic IC50 FTO. The procedure:
In order to determine their efficacy as FTO inhibitors, the compounds were screened by a fluorescence enzymatic inhibition assay developed previously by the Jaffrey lab.^44 Briefly, a nonfluorescent methylated RNA substrate termed “m6A7-Broccoli” is incubated with FTO in the presence of 2-oxoglutarate (300 μM), (NH4)2Fe(SO4)2·6H2O (300 μM), and L-ascorbate (2 mM) for 2 hours at room temperature in reaction buffer (50 mM NaHEPES, pH 6).
as §1
`CCOC(=O)C1CC1C1NCCS1` (stereo not drawn) [ALK-01]: the IC50 was 103 µM and > 40 µM.

`CC(C)(C)OC(=O)N1CCC(F)(C2NCCS2)C1` (stereo not drawn) [ALK-02]: the IC50 is over 40 µM.

As to `O=C(O)N1CCC(F)(C2NCCS2)C1` (stereo not drawn) [ALK-03], the IC50 was over 40 µM.

Regarding `CC1(C)SCC(C)(C(=O)O)N1C(N)=O` (stereo not drawn) [ALK-05], the IC50 was over 40 µM.

In the case of `O=C(O)[C@H]1NCCS1` [ALK-06], the IC50 is over 40 µM.

In the case of `CC1(C)S[C@@H]2[C@H](N)C(=O)N2[C@H]1C(=O)O` [ALK-07], the IC50 was over 40 µM.

`C[C@]1(Cn2ccnn2)C(C(=O)O)N2C(=O)C[C@H]2S1(=O)=O` (stereo partly drawn) [ALK-08]: the IC50 was over 40 µM.

As to `CC1(C)[C@H](C(=O)O)N2C(=O)C[C@H]2S1(=O)=O` [ALK-09], the IC50 was over 40 µM.

For the compound `O=C1N[C@H](C(=O)O)CS1` [ALK-10], the IC50 was over 40 µM.

For `COC(=O)C1COC(c2ccc(O)cc2)N1` (stereo not drawn) [ALK-13], the IC50 is over 40 µM.

Turning to `COC(=O)C1COC(c2ccccc2O)N1` (stereo not drawn) [ALK-16], the IC50 was over 40 µM.

For `COC(=O)C1COC(c2ccc(-c3ccccc3)o2)N1` (stereo not drawn) [ALK-18], the IC50 is 14.2 ± 3.1 µM.

As for `COC(=O)C1COC(c2ccc(OC)c(Cl)c2)N1` (stereo not drawn) [ALK-23], the IC50 is over 40 µM.

Take `COC(=O)C1COC(c2ccc(-c3ccccc3)s2)N1` (stereo not drawn) [ALK-25]: the IC50 is over 40 µM.

In the case of `CCN(CC)c1ccc(C2NC(C(=O)OC)CS2)c(O)c1` (stereo not drawn) [ALK-30], the IC50 is over 40 µM.

The series is the same for the next values; noted with them: Table 800 compounds; read-out: FTO IC50.
As for `O=S(=O)(NCC1CCCOC1)c1ccc(OC(F)(F)F)cc1` (stereo not drawn) [TR-ALKBH5-04], the IC50 was 19.7 µM.

With `CC(=O)c1ccc(S(=O)(=O)NCC2CCCOC2)cc1` (stereo not drawn) [TR-ALKBH5-05], the IC50 is over 40 µM.

For the compound `O=S(=O)(NCC1CCCOC1)c1ccccc1` (stereo not drawn) [TR-ALKBH5-08], the IC50 was 6.4 µM.

In the case of `O=S(=O)(Nc1ccc(Cl)c(C(F)(F)F)c1)c1ccc(OC(F)(F)F)cc1` [TR-ALKBH5-25], the IC50 is over 40 µM.

For `O=S(=O)(Nc1cccs1)c1ccc(OC(F)(F)F)cc1` [TR-ALKBH5-27], the IC50 was over 40 µM.

In the case of `O=S(=O)(Nc1cc(Cl)ccc1O)c1ccc(OC(F)(F)F)cc1` [TR-ALKBH5-29], the IC50 is over 40 µM.

The series is the same for the next values; noted with them: m6A7-Broccoli fluorescence assay, 0.250 μM FTO, inhibitor up to 40 μM, triplicate; read-out: Enzymatic IC50 FTO.
`COc1ncc(-c2ccc3nc(N)sc3c2)cn1` [FTO-4, 6-(2-methoxypyrimidin-5-yl)benzo[d]thiazol-2-amine]: the IC50 stood at 3.39 ± 2.5 µM.

The values are drawn from US20230322715A1, “BROAD SPECTRUM ANTI-CANCER COMPOUNDS” (The Regents of the University of California, priority 2019, published 2023).
